Measurements published in patent US9834542B2, “LXR modulators” (BRISTOL-MYERS SQUIBB COMPANY, priority 2013, dated 2017).

Target: T1, LXRβ (Homo sapiens, UniProt P55055)
T1 construct: Co-transfection expression plasmids, comprising full-length LXRα (pCMX-h LXRα[…] or LXRβ (pCMX-hLXRβ)); expressed in transfected cells; host or cells: CV-1 African Green Monkey Kidney Cells
T1 sequence (P55055 1-460): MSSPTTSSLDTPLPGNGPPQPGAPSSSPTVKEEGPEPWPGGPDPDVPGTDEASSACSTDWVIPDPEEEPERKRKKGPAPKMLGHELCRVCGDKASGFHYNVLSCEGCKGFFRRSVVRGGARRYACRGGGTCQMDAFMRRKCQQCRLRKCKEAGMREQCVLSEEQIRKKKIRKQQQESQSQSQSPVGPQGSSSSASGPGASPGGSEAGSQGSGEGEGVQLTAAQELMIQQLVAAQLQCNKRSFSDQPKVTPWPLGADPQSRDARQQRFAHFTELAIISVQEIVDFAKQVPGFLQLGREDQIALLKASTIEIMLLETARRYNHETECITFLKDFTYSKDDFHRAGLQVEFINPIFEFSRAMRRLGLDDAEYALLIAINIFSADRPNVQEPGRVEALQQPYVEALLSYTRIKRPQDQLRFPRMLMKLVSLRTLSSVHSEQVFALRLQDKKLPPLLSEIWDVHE
T1 sequence (P19793 1-462 partner): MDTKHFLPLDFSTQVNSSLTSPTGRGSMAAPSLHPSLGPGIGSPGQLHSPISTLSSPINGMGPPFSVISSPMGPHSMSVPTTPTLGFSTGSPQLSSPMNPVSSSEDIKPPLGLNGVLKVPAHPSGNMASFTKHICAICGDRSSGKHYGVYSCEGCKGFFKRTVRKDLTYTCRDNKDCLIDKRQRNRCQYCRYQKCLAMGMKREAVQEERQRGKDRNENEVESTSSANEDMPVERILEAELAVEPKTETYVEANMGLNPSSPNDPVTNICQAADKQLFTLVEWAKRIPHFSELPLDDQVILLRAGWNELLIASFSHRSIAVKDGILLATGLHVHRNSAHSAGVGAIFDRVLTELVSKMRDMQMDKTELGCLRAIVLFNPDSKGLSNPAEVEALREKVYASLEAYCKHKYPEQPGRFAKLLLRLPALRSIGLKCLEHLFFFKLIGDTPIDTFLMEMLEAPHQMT
Experiment: Co-transfection assay (LXRE luciferase reporter), LXRβ
Assay type: cell-based
Details: for EC50: CV-1 cells transfected with pCMX-hLXRβ and LXREx1-Tk-Luciferase, 20 hours incubation; for Emax: LXRβ co-transfection, relative to high control 1-(2,4-difluorobenzyl)-2-oxo-6-(4-phenoxyphenyl)-4-(trifluoromethyl)-1,2-dihydropyridine-3-carbonitrile, read-out: % Efficacy
How it was run: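 Luciferase signal from an LXREx1-Tk reporter was measured after transfected CV-1 cells (full-length hLXRβ, endogenous RXR) were treated with compounds for 20 h at 37 °C, ≤0.5% DMSO. EC50 came from four-parameter fits of 11-point ½-log curves; % efficacy versus a reference agonist maximum.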

Row | Compound | EC50 [µM] | Emax [%]
1 | Cc1nc(C(F)(F)F)cn1-c1ccc(-c2cccc(S(C)(=O)=O)c2)cc1-c1nc(C(C)CO)oc1-c1ccc(OC(F)(F)F)cc1 (stereo not shown) [Example 565, 2-(4-(4-(2-methyl-4-(trifluoromethyl)-1H-imidazol-1-yl)-3′-(methylsulfonyl)-[1,1′-biphenyl]-3-yl)-5-(4-(trifluoromethoxy)phenyl)oxazol-2-yl)propan-1-ol] | 0.354 | 30
2 | Cc1nc(-c2ccccc2OC(F)(F)F)c(-c2cc(-c3cccc(S(C)(=O)=O)c3)ccc2-n2cc(C(F)(F)F)nc2C)o1 [Example 631, 2-methyl-5-(4-(2-methyl-4-(trifluoromethyl)-1H-imidazol-1-yl)-3′-(methylsulfonyl)-[1,1′-biphenyl]-3-yl)-4-(2-(trifluoromethoxy)phenyl)oxazole] | 0.216 | 43
3 | CCc1nc(-c2cc(-c3ccc(CO)c(S(C)(=O)=O)c3)ccc2-n2cc(C(F)(F)F)nc2C)c(-c2ccc(OC(F)(F)F)cc2)o1 [Example 519, (3′-(2-ethyl-5-(4-(trifluoromethoxy)phenyl)oxazol-4-yl)-4′-(2-methyl-4-(trifluoromethyl)-1H-imidazol-1-yl)-3-(methylsulfonyl)-[1,1′-biphenyl]-4-yl)methanol] | 0.14 | 100
4 | Cc1nc(-c2cc(-c3cc(F)c(CO)c(S(C)(=O)=O)c3)ccc2-n2cc(C(F)(F)F)nc2C)c(-c2cccnc2C2CC2)o1 [Example 391] | 0.207 | 51
5 | COCCc1nc(-c2cc(-c3cccc(S(C)(=O)=O)c3)ccc2-n2cc(C(F)(F)F)nc2C)c(-c2ccc(Cl)cc2Cl)o1 [Example 553, 5-(2,4-dichlorophenyl)-2-(2-methoxyethyl)-4-(4-(2-methyl-4-(trifluoromethyl)-1H-imidazol-1-yl)-3′-(methylsulfonyl)-[1,1′-biphenyl]-3-yl)oxazole] | 0.156 | 60
6 | Cc1nc(-c2cc(-c3cccc(S(C)(=O)=O)c3)ccc2-n2cc(C(F)(F)F)nc2C)c(-c2ccc(OC(F)F)c(F)c2)o1 [Example 376, 5-(4-(difluoromethoxy)-3-fluorophenyl)-2-methyl-4-(4-(2-methyl-4-(trifluoromethyl)-1H-imidazol-1-yl)-3′-(methylsulfonyl)biphenyl-3-yl)oxazole] | 0.064 | 84
7 | Cc1nc(-c2cc(-c3ccc(C)c(S(C)(=O)=O)c3)ccc2-n2cc(C(F)(F)F)nc2C)c(-c2ccc(OC(F)F)c(F)c2)o1 [Example 435, 5-(4-(difluoromethoxy)-3-fluorophenyl)-2-methyl-4-(4′-methyl-4-(2-methyl-4-(trifluoromethyl)-1H-imidazol-1-yl)-3′-(methylsulfonyl)biphenyl-3-yl)oxazole] | 0.069 | 87
8 | Cc1nc(-c2cc(-c3cc(F)c(CO)c(S(C)(=O)=O)c3)ccc2-n2cc(C(F)(F)F)nc2C)c(-c2ccc(Cl)c(F)c2)o1 [Example 499, (3′-(5-(4-chloro-3-fluorophenyl)-2-methyloxazol-4-yl)-3-fluoro-4′-(2-methyl-4-(trifluoromethyl)-1H-imidazol-1-yl)-5-(methylsulfonyl)biphenyl-4-yl)methanol] | 0.05 | 74

The next lines start with the values.

Row | EC50 [µM] | Emax [%] | Compound
9 | 0.201 | 45 | CCOc1ncc(-c2oc(C)nc2-c2cc(-c3cccc(S(C)(=O)=O)c3)ccc2-n2cc(C(F)(F)F)nc2C)cc1F [Example 471, 5-(6-ethoxy-5-fluoropyridin-3-yl)-2-methyl-4-(4-(2-methyl-4-(trifluoromethyl)-1H-imidazol-1-yl)-3′-(methylsulfonyl)biphenyl-3-yl)oxazole]
10 | 0.115 | 79 | Cc1nc(-c2cc(-c3cccc(S(C)(=O)=O)c3)ccc2-n2cc(C(F)(F)F)nc2C)c(-c2ccc(F)c(F)c2)o1 [Example 511, 5-(3,4-difluorophenyl)-2-methyl-4-(4-(2-methyl-4-(trifluoromethyl)-1H-imidazol-1-yl)-3′-(methylsulfonyl)biphenyl-3-yl)oxazole]
11 | 0.957 | 74 | CS(=O)(=O)c1cccc(-c2ccc(-n3cnc(C(F)(F)F)c3)c(-n3nncc3-c3ccc(Cl)cc3)c2)c1 [Example 13, 5-(4-chlorophenyl)-1-{3′-(methylsulfonyl)-4-[4-(trifluoromethyl)-1H-imidazol-1-yl]biphenyl-3-yl}-1H-1,2,3-triazole]
12 | 0.061 | 74 | Cc1nc(-c2cc(-c3cccc(S(C)(=O)=O)c3)ccc2-n2cc(Cl)nc2C)c(-c2ccc3c(c2)OC(F)(F)O3)o1 [Example 423, 4-(4-(4-chloro-2-methyl-1H-imidazol-1-yl)-3′-(methylsulfonyl)biphenyl-3-yl)-5-(2,2-difluorobenzo[d][1,3]dioxol-5-yl)-2-methyloxazole]
13 | 0.93 | 92 | Cc1ccc(C(C)c2cnnn2-c2cc(-c3cccc(S(C)(=O)=O)c3)ccc2-n2cc(C(F)(F)F)nc2C)cc1 (stereo not shown) [Example 111, 5-[1-(4-methylphenyl)ethyl]-1-{3′-(methylsulfonyl)-4-[2-methyl-4-(trifluoromethyl)-1H-imidazol-1-yl]biphenyl-3-yl}-1H-1,2,3-triazole]
14 | 0.118 | 123 | CCOCc1ccc(-c2ccc(-n3cc(C(F)(F)F)nc3C)c(-n3nncc3-c3ccc(OC(F)(F)F)cc3)c2)cc1S(C)(=O)=O [Example 85, 1-{4′-[(ethyloxy)methyl]-3′-(methylsulfonyl)-4-[2-methyl-4-(trifluoromethyl)-1H-imidazol-1-yl]biphenyl-3-yl}-5-{4-[(trifluoromethyl)oxy]phenyl}-1H-1,2,3-triazole]
15 | 1.05 | 74 | Cc1nc(C(F)(F)F)cn1-c1ccc(-c2cccc(S(C)(=O)=O)c2)cc1-n1nncc1-c1ccc(Cl)c(C#N)c1 [Example 41, 2-chloro-5-(1-{3′-(methylsulfonyl)-4-[2-methyl-4-(trifluoromethyl)-1H-imidazol-1-yl]biphenyl-3-yl}-1H-1,2,3-triazol-5-yl)benzonitrile]
16 | 0.383 | 64 | Cc1nc(C(F)(F)F)cn1-c1ccc(-c2cc(F)c(CO)c(S(C)(=O)=O)c2)cc1-n1nncc1C(=O)c1ccc(Cl)cc1 [Example 140, (4-chlorophenyl)(1-{3′-fluoro-4′-(hydroxymethyl)-5′-(methylsulfonyl)-4-[2-methyl-4-(trifluoromethyl)-1H-imidazol-1-yl]biphenyl-3-yl}-1H-1,2,3-triazol-5-yl)methanone]
17 | 0.256 | 71 | Cc1nc(C(F)F)cn1-c1ccc(-c2cccc(S(C)(=O)=O)c2)cc1-n1nncc1C(C)c1ccc(Cl)cc1 (stereo not shown) [Example 133, 5-[1-(4-chlorophenyl)ethyl]-1-{4-[4-(difluoromethyl)-2-methyl-1H-imidazol-1-yl]-3′-(methylsulfonyl)biphenyl-3-yl}-1H-1,2,3-triazole]
18 | 0.096 | 58 | Cc1nc(-c2cc(-c3cc(F)c(CO)c(S(C)(=O)=O)c3)ccc2-n2cc(C(F)(F)F)nc2C)c(-c2cc(F)cc(F)c2)o1 [Example 448, (3′-(5-(3,5-difluorophenyl)-2-methyloxazol-4-yl)-3-fluoro-4′-(2-methyl-4-(trifluoromethyl)-1H-imidazol-1-yl)-5-(methylsulfonyl)biphenyl-4-yl)methanol]
19 | 0.522 | 79 | Cc1nc(-c2cc(-c3cc(F)c(CO)c(S(C)(=O)=O)c3)ccc2-n2cc(C(F)(F)F)nc2C)c(-c2ccc(Cl)nc2)o1 [Example 551, (3′-(5-(6-chloropyridin-3-yl)-2-methyloxazol-4-yl)-3-fluoro-4′-(2-methyl-4-(trifluoromethyl)-1H-imidazol-1-yl)-5-(methylsulfonyl)-[1,1′-biphenyl]-4-yl)methanol]
20 | 0.661 | 100 | Cc1nc(C(F)(F)F)cn1-c1ccc(-c2cccc(S(C)(=O)=O)c2)cc1-c1nc(CC(=O)O)oc1-c1ccc(OC(F)(F)F)cc1 [Example 537, 2-(4-(4-(2-methyl-4-(trifluoromethyl)-1H-imidazol-1-yl)-3′-(methylsulfonyl)-[1,1′-biphenyl]-3-yl)-5-(4-(trifluoromethoxy)phenyl)oxazol-2-yl)acetic acid]
